System: cancer in type 2 diabetic patients
Assay: Hazard ratios of drug use for cancer, 5-year prospective cohort (Hong Kong Diabetes Registry)
Type: in vivo, Chinese type 2 diabetic patients
Conditions: patients who did not use the drug 2.5 yr prior to enrolment
[1] = Model 1, adjusted for propensity scores
[2] = Model 2, adjusted for risk factors, use of other medications during follow-up and propensity score

| Molecule | HR(95% CI) for cancer, users versus non user [1] | HR(95% CI) for cancer, users versus non user [2] |
| --- | --- | --- |
| O=C1CSC(=O)N1 [TZDs, Thiazolidinedione] | 0.12(0.03-0.50) | 0.18(0.04-0.72) |
| Insulin | 0.48(0.31-0.73) | 0.58(0.38-0.89) |
| CN(C)C(=N)N=C(N)N [Metformin] | 0.38(0.25-0.56) | 0.39(0.25-0.61) |
